The subject of one test is HCT116 cells. Kind of test: Effect of CRAF protein fragment on cell growth, number of living cells by WST assay (CCK-8). Type of test: cell-based, human. As to conditions: 1.0×10^4 cells seeded (similar tendency at 2.0×10^4), transfected with pcDNA-hRAF384, 100 ng plasmid per well, 0-96 h, control empty vector pcDNA3.1(+), FIG. 5 part A. Here is the method:
(§1) The CRAF protein fragment expression plasmid pcDNA-hRAF384 (5807 bp) was prepared by cloning the region of positions 332 to 718 of the human CRAF gene (SEQ ID NO: 6) downstream of a CMV (cytomegalovirus) promoter in the vector pcDNA3.1(+) (Thermo Fisher Scientific). The plasmid expresses a CRAF protein fragment (a polypeptide having the amino acid sequence set forth in SEQ ID NO: 9) of positions 56 to 184 of the human CRAF protein (SEQ ID NO: 5).
HCT116 cells (KRAS mutation-positive human colon cancer cells) were obtained from ATCC. Since HCT116 cells have KRAS in which the position 13 amino acid glycine (G) is activatingly mutated to aspartic acid (D), the RAS/RAF/ME/ERK signaling cascade is activated in HCT116 cells.
(§2) The HCT116 or DLD-1 cells were seeded at 1.0×10^4 or 2.0 x 10^4 cells per well of 96-well plates and cultured in a McCoy's SA medium in an environment of 5% CO2 at 37° C. for 24 h. The cultured cells were transfected with the CRAF protein fragment expression plasmid pcDNA-hRAF384 using Lipofectamine 3000 (Thermo Fisher Scientific). As a control, the cells were transfected with the empty vector pcDNA3.1(+) (Thermo Fisher Scientific). […]
(§3) Immediately (0 h), 24 h, 48 h, 72 h, and 96 h after the cultivation, the cells were collected and measured for the number of living cells by WST assay. […]

In another test the test system is DLD-1 cells. The description is as above. Type of test: cell-based, human. As to conditions: 1.0×10^4 cells seeded (similar tendency at 2.0×10^4), transfected with pcDNA-hRAF384, 100 ng plasmid per well, 0-96 h, control empty vector pcDNA3.1(+), FIG. 5 part B. Here is the method:
as §1
DLD-1 cells (KRAS mutation-positive human colon cancer cells) were obtained from JCRB Cell Bank of National Institutes of Biomedical innovation, Health and Nutrition. Since DLD-1 cells have KRAS in which the position 13 amino acid glycine (G) is activatingly mutated to aspartic acid (D), the RAS/RAF/MEK/ERK signaling cascade is activated in DLD-1 cells.
as §2, §3

In the case of “CRAF protein fragment: Polypeptide of SEQ ID NO: 9, positions 56 to 184 of human CRAF protein, expressed from plasmid pcDNA-hRAF384”, the “cell growth (number of living cells) as compared to the control” value in the test on HCT116 cells and in the test with DLD-1 cells was “reduced growth” in each case.

(Values after patent US20200370050A1, “CELL PROLIFERATION INHIBITOR AND CANCER TREATMENT OR PREVENTION PHARMACEUTICAL COMPOSITION INCLUDING CELL PROLIFERATION INHIBITOR” (priority 2017, published 2020).)
